Source: paper PMC11181322, “Copper(II) Complexes with Isomeric Morpholine-Substituted 2-Formylpyridine Thiosemicarbazone Hybrids as Potential Anticancer Drugs Inhibiting Both Ribonucleotide Reductase and Tubulin Polymerization: The Morpholine Position Matters” (Journal of Medicinal Chemistry, 2024)

How the values were obtained:
[1] = system: MES-SA/Dx5 cells; assay: Fluorescent protein-based cytotoxicity assay, MES-SA/Dx5; type: cell-based, human; details: for IC50: 120 h, ± SD, n = 3; for SR, selectivity ratio IC50 (MES-SA)/IC50 (MES-SA/Dx5): in the absence of TQ
Text: (§1) The cytotoxic activity of proligands H2L^3–H2L^6 and their copper(II) complexes 3–6 was investigated in the MES-SA (human uterine sarcoma) and in its MDR counterpart (MES-SA/Dx5) cell lines by a fluorescent protein-based assay.[73]
(§2) The human uterine sarcoma cell lines MES-SA and the doxorubicin selected MES-SA-Dx5 were obtained from ATCC (MES-SA: No. CRL-1976, MES-SA/Dx5: No. CRL-1977) and were used for the intracellular ROS generation studies. For cytotoxicity, we used the fluorescent cell lines MES-SA mCherry and MES-SA/Dx5 eGFP, which were created by lentiviral transductions of the respective genes.[73] The phenotype of the resistant cells was maintained by 500 nM doxorubicin treatment a week before use and was verified using cytotoxicity assays. Cells were cultivated at 37 °C, 5% CO2 in Dulbecco’s modified Eagle's Medium (DMEM, Sigma-Aldrich), supplemented with 10% fetal bovine serum, 5 mM glutamine, and 50 unit/mL penicillin and streptomycin (Thermo Fisher).
(§3) MES-SA mCherry and MES-SA/Dx5 eGFP cell suspensions were seeded after trypsinization at 2500 cells/20 μL density on 384-well plates, containing 20 μL of completed medium. The next day, serial dilution of the compounds was prepared and added in an additional 20 μL, with or without 0.4 μM Tariquidar. Liquid handling steps were performed by a Hamilton StarLet robot. […] The mean and standard deviation of the pIC50 values were calculated and converted to IC50 values.

[2] = Conditional stability constants of the copper(II) complexes by EDTA displacement (UV–vis); type: physicochemical; details: for logK′5.9 (DMSO/H2O) / logK′5.9 (H2O): EDTA displacement, UV–vis, 25 °C; for logK′5.9 (DMSO/H2O): pH 5.9, 30% (v/v) DMSO/H2O; for logK′5.9 (H2O): pH 5.9, water, I = 0.1 M (KCl); for pCu5.9 (=–log[Cu(II)]): calcd. at pH 5.9, cL = cCu(II) = 1 μM
Procedure: The stability constants of 3–6 were determined by EDTA competition experiments monitored by UV–vis spectrophotometry at pH 5.9, where the [Cu(HL)]^+ species is dominant. Since the displacement of the TSC ligand by EDTA is relatively slow, a 2 h reaction time was used to reach equilibrium. Upon increasing the concentration of EDTA, the absorbance of the characteristic S → Cu charge transfer band at 400–416 nm decreased (see, for example, Figure 3 for the copper(II)–H2L^4 (1:1) system).[68] The experiments were performed in both aqueous solution and the 30% (v/v) DMSO/H2O solvent mixture. The determined conditional (apparent) formation constants (log K′5.9) are rather similar (see Table 2) in both media. However, the values are lower in the DMSO/H2O solvent mixture than in aqueous solution, presumably due to coordination of DMSO to copper(II). An analogous observation was reported for the copper(II) complex of Triapine.[67] […] To compare the copper(II) binding ability of the studied TSCs H2L^3–H2L^6 at pH 5.9 (at which the conditional constants were determined), pCu (−log [Cu(II)]) values were also computed using the experimentally determined equilibrium constants (Table 2). The higher pCu value indicates a stronger metal ion binding ability of the ligand under given circumstances. The ligands form complexes with fairly similar stability, in agreement with the conditional stability constants. […] A similar behavior was reported for aqueous solutions of the N-terminally dimethylated derivative of the 2-pyridinecarboxaldehyde TSC (PTSC)[69] and for the corresponding morpholine-hybrid Morph-dm-FTSC.[52] In particular, the calculated pCu values were also very close, 13.17 for PTSC vs 13.08 for Morph-dm-FTSC calculated at pH 7.4.
The path length was 1 cm.

[3] = Cyclic voltammetry of copper(II) complexes in DMSO/n-Bu4NPF6; type: physicochemical; details: for Epa^1: first anodic peak potential vs Fc+/Fc; for Epa^1 / Epa^2: 100 mV s^–1; for Epa^2: second anodic peak potential vs Fc+/Fc; for E1/2^red: vs Fc+/Fc, scan rate 100 mV s^–1
Procedure: The redox properties of the copper(II) complexes 3–6 were investigated by electrochemical, EPR, and UV–vis spectroelectrochemical measurements. […] While the half-wave reduction potentials E1/2^red for complexes 3–5 were almost the same (−0.82 V vs Fc^+/Fc), the E1/2^red for 6 is by 0.07 V more positive (−0.75 V vs Fc^+/Fc), as summarized in Table 4. The corresponding proligands are not redox active in the cathodic part (not shown).
Cyclic voltammetric experiments with 0.5 mM solutions of copper(II) complexes 3–6 in 0.1 M nBu4NPF6 (puriss quality from Fluka; dried under reduced pressure at 70 °C for 24 h before use) as supporting electrolyte in DMSO (SeccoSolv max. 0.025% H2O, Merck) were performed under Ar using a three-electrode arrangement with Pt wire as the counter electrode and Ag wire as the pseudoreference electrode. Glassy carbon or Pt wire served as the working electrode. Ferrocene purchased from Sigma-Aldrich was used as the internal potential standard without further purification. All potentials in voltammetric studies were quoted vs ferricenium/ferrocene (Fc^+/Fc) as the redox couple. A Heka PG310USB (Lambrecht, Germany) potentiostat with a PotMaster 2.73 software package served for the potential control in voltammetric studies. In situ ultraviolet–visible-near-infrared (UV–vis–NIR) spectroelectrochemical measurements were performed on a spectrometer (Avantes, Model AvaSpec-2048 × 14-USB2 in the spectroelectrochemical cell kit ([…]3) with the Pt-microstructured honeycomb working electrode, purchased from Pine Research Instrumentation. The cell was positioned in the CUV-UV Cuvette Holder (Ocean Optics) connected to the diode array UV–vis-NIR spectrometer by optical fibers. UV–vis-NIR spectra were processed using the AvaSoft 7.7 software package. Halogen and deuterium lamps were used as light sources (Avantes, Model AvaLight-DH-S-BAL).

[4] = system: MES-SA cells; assay: Fluorescent protein-based cytotoxicity assay, MES-SA; type: cell-based, human; details: 120 h; ± SD; n = 3
Text: as §1, §2, §3

[5] = system: purified tubulin; assay: Inhibition of polymerization of purified tubulin; type: biochemical; details: read-out: inhibition of tubulin IC50 ± SD

Structure (SMILES) | IC50 [1] [µM] | SR, selectivity ratio IC50 (MES-SA)/IC50 (MES-SA/Dx5) [1] | logK′5.9 (DMSO/H2O) [2] | logK′5.9 (H2O) [2] | pCu5.9 (=–log[Cu(II)]) [2] | Epa^1 [3] | Epa^2 [3] | E1/2^red [3] | IC50 [4] [µM] | IC50 [5] [µM]
Cc1cc(NC(=NN=Cc2cc(CN3CCOCC3)ccn2)[S][Cu][Cl])cc(C)c1O [complex 4, [Cu(HL^4)Cl]·1.5H2O] | 5.8 ± 0.1 | 3.33 | 10.07 ± 0.01 | 13.35 ± 0.02 | 8.06 | +0.31 V | +0.77 V | –0.82 V | 19.2 ± 1.7 | 15 ± 1
Cc1cc(NC(=NN=Cc2ccc(CN3CCOCC3)cn2)[S][Cu][Cl])cc(C)c1O [complex 5, [Cu(HL^5)Cl]·2.5H2O] | 8.1 ± 2 | 3.81 | 9.99 ± 0.01 | 13.39 ± 0.01 | 8.02 | +0.29 V | +0.69 V | –0.82 V | 31 ± 6.2 | 15 ± 0.4
Cc1cc(NC(=NN=Cc2cccc(CN3CCOCC3)n2)[S][Cu][Cl])cc(C)c1O [complex 6, [Cu(HL^6)Cl]·H2O] | 1.4 ± 0.2 | 0.21 | 10.09 ± 0.04 | 13.73 ± 0.02 | 8.07 | +0.26 V | +0.66 V | – | 0.29 | 5 ± 0.3
